{"source": "patent US20060149043A1", "about": "“Fluorescent lanthadine complex” (Japan Science and Technology Agency, priority 2003, published 2006)", "key": {"[1]": {"assay": "Time resolved luminescence measurement of terbium (III) complexes (luminescence, lifetime, water coordination number)", "assay_type": "physicochemical", "settings": "terbium (III) complex", "method": "Compounds 8, 11 and 15 each were dissolved in dimethyl sulfoxide to prepare 10 mM stock solutions. In addition, terbium (III) chloride hexahydrate was dissolved in dimethyl sulfoxide to prepare a 10 mM stock solution. Equal volumes of the terbium (III) chloride hexahydrate solution prepared were added to the individually prepared solutions of Compounds 8, 11 and 15, and, the resulting solutions were left standing for 30 minutes at room temperature to prepare terbium (III) complexes of Compounds 8, 11 and 15. The solutions were diluted using a 100 mM HEPES buffer (pH 7.4), and the luminescences of 8 μM solutions were measured.\n(§1) Luminescences were measured using a time resolved measurement. Luminescences were measured for all complexes at an excitation wavelength of 330 nm, a delay time of 0.05 ms and a gate time of 1.00 ms. In addition, the luminescence lifetimes were measured using an excitation wavelength of […], and the luminescence wavelengths were measured using 545 nm for individual terbium complexes and 615 nm for individual europium complexes [100 mM HEPES buffer (pH 7.4) in each 8 μM].\nThe luminescence spectra of the terbium (III) complexes of Compounds 8, 11 and 15 are shown in FIG. 11, and their luminescence life and water coordination numbers are shown in Table 1."}, "[2]": {"assay": "Time resolved luminescence measurement of europium (III) complexes (luminescence, lifetime, water coordination number)", "assay_type": "physicochemical", "settings": "europium (III) complex", "method": "Compounds 8, 11 and 15 each were dissolved in dimethylsulfoxide to prepare 10 mM stock solutions. In addition, europium (III) chloride hexahydrate was dissolved in dimethylsulfoxide to prepare a 10 mM stock solution. Equal volumes of the europium (III) chloride hexahydrate solution were added to the individually prepared solutions of Compounds 8, 11 and 15, and the resulting solutions were left standing for 30 minutes at room temperature to prepare the europium (III) complexes of the Compounds 8, 11 and 15. These solutions were diluted using 100 mM HEPES buffer solution (pH 7.4), and the luminescences of the 8 μM solutions were measured.\nas §1\nIn addition, the luminescence spectra of the europium (III) complexes of Compounds 8, 11 and 15 are shown in FIG. 12, and their luminescence life and water coordination numbers are shown in Table 2."}, "[3]": {"settings": "8 μM, 100 mM HEPES buffer (pH 7.4), excitation 330 nm, delay time 0.05 ms, gate time 1.00 ms"}}, "data": [{"smiles": "Cc1cc(=O)[nH]c2cc(NC(=O)CN(CCN(CCN(CC(=O)O)CC(=O)O)CC(=O)O)CC(=O)O)ccc12", "note": "[DTPA-cs124]", "values": [{"measurement": "Water coordination number", "setting": "[1]", "value": 1.23}, {"measurement": "Life time (H2O)", "setting": "[1]; 8 μM in 100 mM HEPES buffer (pH 7.4), luminescence wavelength 545 nm, H2O", "value": 1.46, "unit": "ms"}, {"measurement": "Luminescence emission (intensity)", "setting": "[1]; [3]", "value": "almost identical"}, {"measurement": "Life time (D2O)", "setting": "[1]; luminescence wavelength 545 nm, D2O", "value": 2.55, "unit": "ms"}, {"measurement": "Water coordination number", "setting": "[2]", "value": 1.34}, {"measurement": "Life time (H2O)", "setting": "[2]; 8 μM in 100 mM HEPES buffer (pH 7.4), luminescence wavelength 615 nm, H2O", "value": 0.59, "unit": "ms"}, {"measurement": "Luminescence emission (intensity)", "setting": "[2]; [3]", "value": "almost identical"}, {"measurement": "Life time (D2O)", "setting": "[2]; luminescence wavelength 615 nm, D2O", "value": 2.38, "unit": "ms"}]}]}
